According to patent publication US7504517B2, “Kv1.5 potassium channel inhibitors” (Wyeth, priority 2006, dated 2009):

What follows are compounds tested against T1, Kv1.5 (Homo sapiens, UniProt P22460) (assay: Kv1.5 Patch Clamp EP). Conditions: 1.0 μM, single point; whole cell patch clamp, Kv1.5 stably over expressed in HEK or LTK- cells.
T1 construct: expressed in transfected cells; host or cells: HEK or LTK- cells
Format: cell-based
Procedure: The external solution is standard Tyrodes solution. […] Inhibition was measured at the end of the 1 second pulses and expressed relative to controls. Initial Kv1.5 inhibition is estimated by single point determinations done at 1 μM.

T1 sequence (P22460 whole entry): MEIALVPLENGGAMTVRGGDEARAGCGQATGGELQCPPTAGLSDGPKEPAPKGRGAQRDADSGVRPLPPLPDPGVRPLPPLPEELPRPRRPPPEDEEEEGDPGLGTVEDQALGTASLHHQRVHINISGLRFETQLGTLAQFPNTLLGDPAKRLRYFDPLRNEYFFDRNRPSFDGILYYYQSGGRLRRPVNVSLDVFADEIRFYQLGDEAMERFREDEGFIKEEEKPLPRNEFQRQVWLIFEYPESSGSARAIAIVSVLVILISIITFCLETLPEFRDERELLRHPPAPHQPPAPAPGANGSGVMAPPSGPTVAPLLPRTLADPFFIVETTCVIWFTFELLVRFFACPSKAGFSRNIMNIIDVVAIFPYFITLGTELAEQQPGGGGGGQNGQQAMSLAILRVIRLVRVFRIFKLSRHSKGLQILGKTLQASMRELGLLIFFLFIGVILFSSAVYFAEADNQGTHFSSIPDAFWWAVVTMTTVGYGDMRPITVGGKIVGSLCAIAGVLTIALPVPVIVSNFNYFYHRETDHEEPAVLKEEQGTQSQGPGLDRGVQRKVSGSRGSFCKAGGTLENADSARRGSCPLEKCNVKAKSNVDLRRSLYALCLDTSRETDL

Row | SMILES | inhibition at 1 µM [%]
1 | COc1ccc(CN2C(=O)N(NS(C)(=O)=O)CC2c2ccc(C3CC3)cc2)cc1 (centres unmarked) [Compound 19, 1-(Methylsulfonylamino)-3-[(4-methoxyphenyl)methyl]-4-(4-cyclopropylphenyl)-2-imidazolidinone] | 27
2 | COc1ccc(CCN2C(=O)N(N)CC2c2ccc(OC)cc2)cc1 (centres unmarked) [Compound 175, 1-amino-4-(4-methoxyphenyl)-3-[2-(4-methoxyphenyl)ethyl]imidazolidin-2-one] | 7
3 | CCOc1ccc(CCN2C(=O)N(NS(C)(=O)=O)CC2c2ccc(OC)cc2)cc1 (centres unmarked) [Compound 113, N-{3-[2-(4-ethoxyphenyl)ethyl]-4-(4-methoxyphenyl)-2-oxoimidazolidin-1-yl}methanesulfonamide] | 5
4 | CN(C)CCOc1ccc(CCN2C(=O)N(NS(C)(=O)=O)CC2c2ccc(C(C)(C)C)cc2)cc1 (centres unmarked) [Compound 118, N-[4-(4-tert-butylphenyl)-3-(2-{4-[2-(dimethylamino)ethoxy]phenyl}ethyl)-2-oxoimidazolidin-1-yl]methanesulfonamide] | 9
5 | COc1ccc(CCN2C(=O)N(NC(N)=O)CC2c2ccc(C)c(C)c2)cc1 (centres unmarked) [Compound 70, {2-Oxo-3-[2-(4-methoxyphenyl)ethyl]-4-(3,4-dimethylphenyl)-imidazolidin-1-yl}-urea] | 22
6 | COc1ccc(CCN2C(=O)N(NS(=O)(=O)CCN3CCOCC3)CC2c2ccc3c(c2)OCCO3)cc1 (centres unmarked) [Compound 125, N-{4-(2,3-dihydro-1,4-benzodioxin-6-yl)-3-[2-(4-methoxyphenyl)ethyl]-2-oxoimidazolidin-1-yl}-2-morpholin-4-ylethanesulfonamide] | 42
7 | CCN(CC)c1ccc(CNN2CC(c3ccc(C(C)(C)C)cc3)N(CCc3ccc(OC)cc3)C2=O)cc1 (centres unmarked) [Compound 123, 4-(4-tert-butylphenyl)-1-{[4-(diethylamino)benzyl]amino}-3-[2-(4-methoxyphenyl)ethyl]imidazolidin-2-one] | 25
8 | COc1ccc(CCN2C(=O)N(N)CC2C2(c3ccccc3)CC2)cc1 (centres unmarked) [Compound 156, 1-amino-3-[2-(4-methoxyphenyl)ethyl]-4-(1-phenylcyclopropyl)imidazolidin-2-one] | 7
9 | COc1ccc(CCN2C(=O)N(N3CCCS3(=O)=O)CC2c2ccc(C3CC3)cc2)cc1 (centres unmarked) [Compound 124, 4-(4-cyclopropylphenyl)-1-(1,1-dioxidoisothiazolidin-2-yl)-3-[2-(4-methoxyphenyl)ethyl]imidazolidin-2-one] | 38
10 | COc1ccc(CCN2C(=O)N(NS(=O)(=O)Cc3cccnc3)CC2C2(c3ccccc3)CC2)cc1 (centres unmarked) [Compound 134, N-{3-[2-(4-methoxyphenyl)ethyl]-2-oxo-4-(1-phenylcyclopropyl)imidazolidin-1-yl}-1-pyridin-3-ylmethanesulfonamide] | 22
11 | COc1ccc(CCN2C(=O)N(NS(=O)(=O)N3CCN(C)CC3)CC2c2ccc(C)c(C)c2)cc1 (centres unmarked) [Compound 166, N-{4-(3,4-dimethylphenyl)-3-[2-(4-methoxyphenyl)ethyl]-2-oxoimidazolidin-1-yl}-4-methylpiperazine-1-sulfonamide] | 41
12 | COc1ccc(CCN2C(=O)N(NS(C)(=O)=O)CC2c2ccc(OC)nc2)cc1 (centres unmarked) [Compound 149, N-{3-[2-(4-methoxyphenyl)ethyl]-4-(6-methoxypyridin-3-yl)-2-oxoimidazolidin-1-yl}methanesulfonamide] | 9
13 | COc1ccc(CCN2C(=O)N(NS(C)(=O)=O)CC2c2ccc3c(c2)OCCO3)cc1OC (centres unmarked) [Compound 144, N-{4-(2,3-dihydro-1,4-benzodioxin-6-yl)-3-[2-(3,4-dimethoxyphenyl)ethyl]-2-oxoimidazolidin-1-yl}methanesulfonamide] | 16
14 | COc1ccc(CCN2C(=O)N(NS(=O)(=O)CC(=O)OCC3c4ccccc4-c4ccccc43)CC2c2ccc(C3CC3)cc2)cc1 (centres unmarked) [Compound 102, 1-[[2-(9H-fluoren-9-ylmethoxy)-2-oxoethyl]sulfonylamino]-3-[2-(4-methoxyphenyl)ethyl]-4-(4-cyclopropylphenyl)-2-imidazolidinone] | 6
